Reference: ChEMBL document CHEMBL5291721, “A preclinical secondary pharmacology resource illuminates target-adverse drug reaction associations of marketed drugs” (Nat Commun, 2023)

How the values were obtained:
[1] = target: T1, Type-2 angiotensin II receptor (Homo sapiens, UniProt P50052); type: functional
T1 sequence (P50052 whole entry): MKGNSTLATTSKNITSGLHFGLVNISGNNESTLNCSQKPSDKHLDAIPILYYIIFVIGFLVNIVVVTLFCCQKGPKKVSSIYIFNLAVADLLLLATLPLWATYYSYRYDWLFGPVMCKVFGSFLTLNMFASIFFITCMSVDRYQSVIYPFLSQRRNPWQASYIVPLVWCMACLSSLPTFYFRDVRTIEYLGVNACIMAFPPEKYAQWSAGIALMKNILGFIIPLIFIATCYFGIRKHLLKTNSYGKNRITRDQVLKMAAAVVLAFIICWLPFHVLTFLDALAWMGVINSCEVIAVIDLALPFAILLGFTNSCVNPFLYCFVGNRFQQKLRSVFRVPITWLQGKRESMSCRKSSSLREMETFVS

[2] = target: T2, 5-hydroxytryptamine receptor 1A (Homo sapiens, UniProt P08908)
T2 sequence (P08908 whole entry): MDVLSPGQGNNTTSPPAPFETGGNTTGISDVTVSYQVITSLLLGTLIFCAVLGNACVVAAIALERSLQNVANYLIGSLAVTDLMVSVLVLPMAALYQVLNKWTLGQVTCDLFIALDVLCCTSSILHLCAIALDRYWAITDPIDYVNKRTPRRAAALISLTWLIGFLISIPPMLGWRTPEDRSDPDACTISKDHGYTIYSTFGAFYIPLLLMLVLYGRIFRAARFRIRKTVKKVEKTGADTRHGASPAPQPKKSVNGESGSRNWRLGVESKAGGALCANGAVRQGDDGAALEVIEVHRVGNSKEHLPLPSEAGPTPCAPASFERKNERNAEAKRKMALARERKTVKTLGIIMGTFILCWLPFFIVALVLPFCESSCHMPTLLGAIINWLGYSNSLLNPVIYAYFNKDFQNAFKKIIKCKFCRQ

[3] = target: T3, Prostaglandin G/H synthase 1 (Rattus norvegicus, UniProt Q63921); type: functional
T3 sequence (Q63921 whole entry): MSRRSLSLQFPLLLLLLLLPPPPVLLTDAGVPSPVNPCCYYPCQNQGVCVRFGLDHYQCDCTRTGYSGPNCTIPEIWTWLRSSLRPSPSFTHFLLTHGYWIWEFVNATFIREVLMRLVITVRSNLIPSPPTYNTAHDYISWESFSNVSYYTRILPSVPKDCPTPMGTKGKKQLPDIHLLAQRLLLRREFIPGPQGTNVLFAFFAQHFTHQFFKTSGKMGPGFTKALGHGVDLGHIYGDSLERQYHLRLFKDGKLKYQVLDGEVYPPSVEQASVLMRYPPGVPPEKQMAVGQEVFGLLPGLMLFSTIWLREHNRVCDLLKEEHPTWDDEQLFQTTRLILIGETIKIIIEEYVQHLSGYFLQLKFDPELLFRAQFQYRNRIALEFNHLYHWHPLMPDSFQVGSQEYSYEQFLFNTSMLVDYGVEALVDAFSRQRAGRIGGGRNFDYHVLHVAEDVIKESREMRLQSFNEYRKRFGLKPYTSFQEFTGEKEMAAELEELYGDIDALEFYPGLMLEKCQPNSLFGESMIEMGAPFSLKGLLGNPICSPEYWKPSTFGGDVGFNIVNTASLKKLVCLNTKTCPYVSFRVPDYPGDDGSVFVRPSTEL

[4] = target: Beta-1 adrenergic receptor (Homo sapiens, UniProt P08588); type: functional, cell-based
Sequence of Beta-1 adrenergic receptor (P08588 whole entry): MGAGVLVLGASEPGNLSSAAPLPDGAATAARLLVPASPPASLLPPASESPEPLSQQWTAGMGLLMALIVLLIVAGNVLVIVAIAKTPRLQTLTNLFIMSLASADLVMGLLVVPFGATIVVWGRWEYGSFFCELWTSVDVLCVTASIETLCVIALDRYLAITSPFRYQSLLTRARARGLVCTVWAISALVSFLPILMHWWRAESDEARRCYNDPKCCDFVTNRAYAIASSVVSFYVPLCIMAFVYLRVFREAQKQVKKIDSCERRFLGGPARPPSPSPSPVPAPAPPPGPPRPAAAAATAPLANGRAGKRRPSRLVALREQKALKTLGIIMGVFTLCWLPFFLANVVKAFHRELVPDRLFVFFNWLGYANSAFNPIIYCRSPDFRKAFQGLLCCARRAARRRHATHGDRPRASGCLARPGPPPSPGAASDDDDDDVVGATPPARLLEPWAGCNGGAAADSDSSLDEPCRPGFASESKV

[5] = target: Oxysterols receptor LXR-alpha (Homo sapiens, UniProt Q13133); type: functional
Sequence of Oxysterols receptor LXR-alpha (Q13133 whole entry): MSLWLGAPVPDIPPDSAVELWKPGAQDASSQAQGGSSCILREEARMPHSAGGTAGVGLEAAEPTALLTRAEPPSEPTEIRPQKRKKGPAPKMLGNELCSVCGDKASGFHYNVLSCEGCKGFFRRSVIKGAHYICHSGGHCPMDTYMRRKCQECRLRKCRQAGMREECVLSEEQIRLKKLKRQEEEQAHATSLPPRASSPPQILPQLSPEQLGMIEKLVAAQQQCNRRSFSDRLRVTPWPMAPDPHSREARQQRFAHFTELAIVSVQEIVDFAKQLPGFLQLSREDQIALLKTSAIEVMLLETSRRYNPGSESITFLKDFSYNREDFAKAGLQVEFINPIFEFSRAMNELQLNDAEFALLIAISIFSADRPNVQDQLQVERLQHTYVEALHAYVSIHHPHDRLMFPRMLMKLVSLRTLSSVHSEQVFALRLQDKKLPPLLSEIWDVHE

[6] = target: Oxysterols receptor LXR-beta (Homo sapiens, UniProt P55055); type: functional
Sequence of Oxysterols receptor LXR-beta (P55055 whole entry): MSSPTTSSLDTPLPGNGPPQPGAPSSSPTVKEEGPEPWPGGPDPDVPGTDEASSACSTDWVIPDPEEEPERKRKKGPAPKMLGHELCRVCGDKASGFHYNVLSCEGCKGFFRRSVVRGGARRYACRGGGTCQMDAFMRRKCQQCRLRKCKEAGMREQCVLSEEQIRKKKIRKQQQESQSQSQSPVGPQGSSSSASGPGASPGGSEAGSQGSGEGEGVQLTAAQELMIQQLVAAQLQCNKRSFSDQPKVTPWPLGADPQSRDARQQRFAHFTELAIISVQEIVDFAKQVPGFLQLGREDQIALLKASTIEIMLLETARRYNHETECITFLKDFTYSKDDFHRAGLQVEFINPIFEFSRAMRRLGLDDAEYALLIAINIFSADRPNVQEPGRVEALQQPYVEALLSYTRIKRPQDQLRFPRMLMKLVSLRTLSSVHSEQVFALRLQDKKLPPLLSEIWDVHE

[7] = target: T4, Retinoic acid receptor alpha (Homo sapiens, UniProt P10276); type: functional, cell-based
T4 sequence (P10276 whole entry): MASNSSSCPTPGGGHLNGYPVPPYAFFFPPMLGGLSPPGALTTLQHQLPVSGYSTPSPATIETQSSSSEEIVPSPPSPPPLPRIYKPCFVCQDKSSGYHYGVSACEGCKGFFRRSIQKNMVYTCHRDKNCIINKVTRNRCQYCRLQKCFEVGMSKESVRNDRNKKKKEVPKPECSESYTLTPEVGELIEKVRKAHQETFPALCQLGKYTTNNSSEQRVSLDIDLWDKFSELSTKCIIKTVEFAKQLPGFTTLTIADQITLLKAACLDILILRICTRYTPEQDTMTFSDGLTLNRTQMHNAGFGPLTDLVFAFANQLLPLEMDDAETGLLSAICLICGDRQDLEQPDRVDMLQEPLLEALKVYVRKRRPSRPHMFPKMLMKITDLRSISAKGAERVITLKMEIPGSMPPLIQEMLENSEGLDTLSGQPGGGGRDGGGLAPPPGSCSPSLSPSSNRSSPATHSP

[8] = target: Retinoic acid receptor beta (Homo sapiens, UniProt P10826); type: functional, cell-based
Sequence of Retinoic acid receptor beta (P10826 whole entry): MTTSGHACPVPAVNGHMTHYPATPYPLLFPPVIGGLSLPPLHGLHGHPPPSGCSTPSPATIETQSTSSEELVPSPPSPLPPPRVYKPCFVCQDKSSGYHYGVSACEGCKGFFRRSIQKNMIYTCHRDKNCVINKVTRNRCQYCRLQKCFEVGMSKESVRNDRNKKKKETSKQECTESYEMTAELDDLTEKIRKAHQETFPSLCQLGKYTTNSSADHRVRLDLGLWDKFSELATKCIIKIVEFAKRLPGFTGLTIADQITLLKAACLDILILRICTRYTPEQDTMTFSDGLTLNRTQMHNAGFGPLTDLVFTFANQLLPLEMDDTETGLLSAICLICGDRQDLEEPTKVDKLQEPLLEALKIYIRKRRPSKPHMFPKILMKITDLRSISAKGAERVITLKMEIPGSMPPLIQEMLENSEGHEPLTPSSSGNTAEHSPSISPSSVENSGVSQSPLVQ

[9] = target: T4, Retinoic acid receptor alpha; type: functional, cell-based; remark: listed apart in the source
[10] = target: T5, Peroxisome proliferator-activated receptor alpha (Homo sapiens, UniProt Q07869); type: functional
T5 sequence (Q07869 whole entry): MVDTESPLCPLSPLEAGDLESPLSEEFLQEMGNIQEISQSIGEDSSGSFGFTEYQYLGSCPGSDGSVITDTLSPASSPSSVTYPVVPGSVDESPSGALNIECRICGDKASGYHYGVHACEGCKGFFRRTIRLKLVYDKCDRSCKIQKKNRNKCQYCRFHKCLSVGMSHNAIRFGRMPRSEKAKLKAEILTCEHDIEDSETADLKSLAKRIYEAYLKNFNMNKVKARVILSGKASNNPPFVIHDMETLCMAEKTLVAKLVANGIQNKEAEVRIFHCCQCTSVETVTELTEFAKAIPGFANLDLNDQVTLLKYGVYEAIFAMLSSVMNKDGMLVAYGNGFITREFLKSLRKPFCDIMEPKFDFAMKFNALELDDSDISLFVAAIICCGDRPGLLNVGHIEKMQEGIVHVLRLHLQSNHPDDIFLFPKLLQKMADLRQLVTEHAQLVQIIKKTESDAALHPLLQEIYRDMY

[11] = target: T6, Type-1 angiotensin II receptor (Homo sapiens, UniProt P30556)
T6 sequence (P30556 whole entry): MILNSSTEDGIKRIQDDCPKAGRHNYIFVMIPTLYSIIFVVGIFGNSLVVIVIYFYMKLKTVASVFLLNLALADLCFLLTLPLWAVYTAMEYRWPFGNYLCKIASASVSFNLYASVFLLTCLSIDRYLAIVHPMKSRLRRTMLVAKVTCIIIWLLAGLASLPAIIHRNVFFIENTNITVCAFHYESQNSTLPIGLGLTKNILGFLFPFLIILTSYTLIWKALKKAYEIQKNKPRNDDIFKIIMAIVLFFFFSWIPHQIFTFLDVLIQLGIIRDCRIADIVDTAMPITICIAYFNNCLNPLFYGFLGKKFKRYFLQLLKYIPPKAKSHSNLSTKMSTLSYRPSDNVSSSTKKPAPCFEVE
Also: assay procedure not described here.

**Q.** `CCOc1nc2cccc(C(=O)O)c2n1Cc1ccc(-c2ccccc2-c2nnn[nH]2)cc1` was tested. Which AC50 [1] did it give?
**A.** 84.8 µM

**Q.** How did the AC50 [2] turn out when `CC[C@@H](CO)NC(=O)[C@@H]1C=C2c3cccc4c3c(cn4C)C[C@H]2N(C)C1` [METHYSERGIDE] was run?
**A.** 170 nM

**Q.** Which AC50 [3] does the source give for `CN(CCOc1ccc(CC2SC(=O)NC2=O)cc1)c1ccccn1` (stereo unspecified) [ROSIGLITAZONE] here?
**A.** > 30 µM

**Q.** How did the AC50 [4] turn out when `CC(C)C[C@H](NC(=O)[C@@H](O)[C@H](N)Cc1ccccc1)C(=O)O` [UBENIMEX] was run?
**A.** > 30 µM

**Q.** Which results are given for `COc1cc(C(=O)NS(=O)(=O)c2ccccc2C)ccc1Cc1cn(C)c2ccc(NC(=O)OC3CCCC3)cc12` [ZAFIRLUKAST]?
**A.** AC50 [5]: > 30 µM; AC50 [6]: > 30 µM; AC50 [7]: > 30 µM; AC50 [8]: 13 µM; AC50 [9]: > 30 µM; AC50 [10]: > 30 µM; AC50 [11]: 50 µM
